In patent US20230129326A1, “METHODS TO PREVENT SARS-COV-2 INFECTION AND TREAT COVID-19” (priority 2020, published 2023):
Converted amounts (≈) assume the structure as drawn.

Assays:
[1] = tested on: SARS-CoV-2 pseudovirus entry in ACE2 expressing cells; type: cell-based
[2] = tested on: SARS-CoV-2 isolate USA-WA1/2020; assay: microbe, parasite or virus in culture; type: cell-based; details: Severe acute respiratory syndrome coronavirus 2, A549, read-out: EC50 against SARS-CoV-2 isolate USA-WA1/2020 in A549 overexpressing ACE2

SMILES	level of SARS-CoV-2 pseudovirus entry, varying concentrations (FIG. 15A) [1]	viral infection (GFP positive cells per image field) [1]	level of SARS-CoV-2 pseudovirus entry, varying concentrations (diminazene, cetirizine, labetalol graph) [1]	EC50 [2]
CN1CCCC(n2nc(Cc3ccc(Cl)cc3)c3ccccc3c2=O)CC1 (centres unmarked) [azelastine]	significantly lowered the level of SARS-CoV-2 pseudovirus entry	substantially reduced viral infection		
O=C(O)COCCN1CCN(C(c2ccccc2)c2ccc(Cl)cc2)CC1 (centres unmarked) [cetirizine]		reduced viral infection	significantly lowered the level of SARS-CoV-2 pseudovirus entry	
CN(C)CCC(c1ccc(Cl)cc1)c1ccccn1 (centres unmarked) [chlorpheniramine]		reduced viral infection		
N=C(N)c1ccc(/N=N/Nc2ccc(C(=N)N)cc2)cc1 [diminazene]		reduced viral infection	significantly lowered the level of SARS-CoV-2 pseudovirus entry	
CN(C)CCOC(c1ccccc1)c1ccccc1 [diphenhydramine]		substantially reduced viral infection		
OCCOCCN1CCN(C(c2ccccc2)c2ccc(Cl)cc2)CC1 (centres unmarked) [hydroxyzine]	significantly lowered the level of SARS-CoV-2 pseudovirus entry	substantially reduced viral infection		27.3 µg/mL (≈ 72.9 µM)
